# US11844772B2, “Method for treating rhabdoid tumors” (Lantern Pharma Inc., priority 2020, dated 2023)
# pIC50: −log10 of the molar value.
# Tests used:
# [1] = tested on: CHLA-02 (group 1) ATRT cell line; assay: LP-184 sensitivity in ATRT cell line CHLA-02; format: cell-based
# Source text: (§1) Patients receive several types of treatment, which may include surgery, chemotherapy and radiation, but the overall 2-year survival rate remains less than 15% for children aged younger than 3 years at diagnosis. ATRTs commonly have mutations in or loss of the gene SMARCB1. Increased LP-184 sensitivity correlates with decreased expression of SMARCB1. The panel of 3 ATRT cell lines, 2 of the 3 lines show evidence of high sensitivity to HydroxyUreaMethyl Acylfulvene (having a negative optical activity) or LP-184 with IC50s for those 2 being lower than 200 nM.
# [2] = tested on: CHLA-05 (group 1) ATRT cell line; assay: LP-184 sensitivity in ATRT cell line CHLA-05; format: cell-based
# Source text: as §1
# [3] = tested on: CHLA-06 (group 2A/B) ATRT cell line; assay: LP-184 sensitivity in ATRT cell line CHLA-06; format: cell-based
# Source text: as §1
# [4] = tested on: panel of 3 ATRT cell lines; assay: LP-184 sensitivity in a panel of 3 ATRT cell lines; format: cell-based; settings: 2 of the 3 ATRT cell lines (high sensitivity)
# Source text: as §1
# CHLA06 xenograft tumors = assay: in vivo xenograft tumor study, animal model of atypical teratoid rhabdoid tumor (ATRT); design: species or system NOD SCID mice
# Protocol: LP-184 or HydroxyUreaMethyl Acylfulvene with a negative optical activity was tested for anti-tumor efficacy in an in vivo xenograft tumor study by Lantern Pharma. […] LP-184 was administered after (treatment model) the onset of disease. CHLA06 cells were implanted subcutaneously in non-obese diabetic severe combined immunodeficiency (NOD SCID) mice, formed xenograft tumors, and were thereafter treated either with vehicle control of 95% saline/5% ethanol (N=10) or 2 mg/kg or 4 mg/kg LP-184 (N=10) administered as intravenous injections.
# LP-184 was delivered as 5 every other day doses over 2 cycles with a break of 5 days between cycles (IV/QaD×5on/5off×2), i.e., dosing occurred on days 0, 2, 4, 6. 8, 14, 16, 18, 20, and 22 of the study. LP-184 treatment was started 4 weeks after implantation when the tumors reached a group average volume of 150 mm^3. […] 2 out of 10 mice in the 4 mg/kg LP-184 treatment group were virtually tumor-free at study termination (tumor volume 0.5 mm^3). […] The results are highlighted in FIG. 2, wherein the Y axis denotes tumor volume in mm^3 and X axis denotes days post, treatment initiation. Since tumor growth was established before administration of the anti-cancer study drug, the defining feature of the treatment tumor model, anti-tumor treatment effects may thus be appropriately attributed to LP-184.
# In CHLA06 xenograft models, tumors from the vehicle control treated mice appear vividly large (length range 1.5-2 cm) whereas tumors from 4 mg/kg LP-184 treated animals shrunk remarkably (length less than 0.5 cm) or have fully regressed.
structure (smiles),measurement,setting,value
"CC1=C(CN(O)C(N)=O)C2=C(C)C3(CC3)[C@@](C)(O)C(=O)C2=C1 [LP-184, HydroxyUreaMethyl Acylfulvene]",pIC50,[1],5.75
same,pIC50,[2],6.79
same,pIC50,[3],7.43
same,pIC50,[4],> 6.70
same,mice virtually tumor-free at study termination,"CHLA06 xenograft tumors; 4 mg/kg IV group, N=10",2 out of 10
same,tumor volume of virtually tumor-free mice,"CHLA06 xenograft tumors; 4 mg/kg IV group, study termination",0.5 mm^3
same,tumor length (photographs at end of experiment),"CHLA06 xenograft tumors; 4 mg/kg LP-184 treated animals, vehicle 1.5-2 cm",less than 0.5 cm
same,"tumor regression, on average","CHLA06 xenograft tumors; LP-184 treated groups (2 or 4 mg/kg IV), end of study day 42",near complete tumor regression
same,tumor regrowth after final dose,"CHLA06 xenograft tumors; day 40, final dose on day 22",no tumor regrowth
same,Tumor growth inhibition,"CHLA06 xenograft tumors; relative to control, IV QoDx5 on/5 off x2, 2 mg/kg or 4 mg/kg",112%
